Values joined by “and” are separate entries in the source; they are usually repeats but may differ in a detail not shown here. Equal entries are not always repeated. Where two headings read alike, the source gives them in different places. Marks after values point to notes of the source that are not given here.
Experiments:
S. typhimurium TA98 = details: positive control, 1.25 μg/ plate, TA 98, + S9
S. typhimurium TA97a [1] = details: positive control, 1.25 μg/ plate, TA 97, + S9
S. typhimurium TA97a [2] = details: mutagen alone (Ctrol +), 1.25 μg/ plate, TA 97a, + S9; listed as AA
S. typhimurium TA100 [3] = details: positive control, 1.25 μg/ plate, TA 100, + S9
S. typhimurium TA100 [4] = system: S. typhimurium TA100

Compound: Nc1ccc2cc3ccccc3cc2c1 [2-anthramine, 2-aminoanthracene, reference compound]
- Number of revertants (M ± SD)/ plate (S. typhimurium TA98): 1567 ± 115 ^e revertants/plate and 1498 ± 33^ e revertants/plate
- Number of revertants (M ± SD)/ plate (S. typhimurium TA97a [1]): 1789 ± 89 ^e revertants/plate and 1861 ± 23 ^e revertants/plate
- Number of revertants (M ± SD)/ plate (S. typhimurium TA97a [2]): 2312 ± 81 revertants/plate and 1861 ± 23 revertants/plate
- Number of revertants (M ± SD)/ plate (S. typhimurium TA100 [3]): 1456 ± 78 ^e revertants/plate and 1072 ± 25^ e revertants/plate

Compound: aflatoxin B1 [AFB1, reference compound]
- Number of revertants (M ± SD)/ plate (S. typhimurium TA100 [4]): 2171 ± 33 revertants/plate and 2200 ± 140 revertants/plate

Reference: article PMC6268188, “Comparative Studies of the (Anti) Mutagenicity of Baccharis dracunculifolia and Artepillin C by the Bacterial Reverse Mutation Test” (Molecules, 2012)
